Where “and” joins values, the source holds several entries; their conditions need not be identical. Equal entries are not always repeated. Inconclusive results and toxic doses are left out. No stated cut-off is given here; in the data, active means T/C of 150% or more; inactive means T/C below 125%. Numbered stars: 1 amine (or outer) side, 2 acyl side, 3 side chain; on linkers, the order of the positions; unused ones are H or OH. Bridge positions count the residues as written; N and C are the ends. Square brackets hold non-standard residues; d marks the D form. Peptide text beside a SMILES is read from it. * marks the point of attachment. X3 = CC(C)C(C)C(C(=O)[*:2])N(C)[*:1]; Picolinoyl(3-OH) = O=C(c1ncccc1O)*; NMePhg = CN[CH](C(=O)O)c1ccccc1; Hyp = O=C(O)[CH]1C[CH](O)CN1; Sar = CNCC(=O)O
System: L1210 leukemia ip in BDF1 mice, survival T/C
Assay: NCI In Vivo Anticancer Drug Screen. Data for tumor model L1210 Leukemia (intraperitoneal) in B6D2F1 (BDF1) mice
Settings: endpoint: mean survival time, higher = longer survival
Outline: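 Transplanted-tumor mice were given test agent; controls received vehicle only. Survival readings from the two groups were divided (treated over control).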

[1] = dose: 100.0 mg/kg/injection, schedule: Q01DX009 (ip), vehicle: saline
[2] = dose: 100.0 mg/kg/injection, schedule: Q04DX003 (ip), vehicle: Klucel (hydroxypropylcellulose) (HPC)
[3] = dose: 200.0 mg/kg/injection, schedule: Q04DX003 (ip), vehicle: Klucel (hydroxypropylcellulose) (HPC)
[4] = dose: 400.0 mg/kg/injection, schedule: Q04DX003 (ip), vehicle: Klucel (hydroxypropylcellulose) (HPC)
[5] = dose: 100.0 mg/kg/injection, schedule: Q01DX009 (ip), vehicle: Klucel (hydroxypropylcellulose) (HPC)
[6] = dose: 200.0 mg/kg/injection, schedule: Q01DX009 (ip), vehicle: Klucel (hydroxypropylcellulose) (HPC)
[7] = dose: 400.0 mg/kg/injection, schedule: Q01DX009 (ip), vehicle: Klucel (hydroxypropylcellulose) (HPC)
[8] = dose: 100.0 mg/kg/injection, schedule: Q01DX001 (ip), vehicle: carboxymethylcellulose (CMC)
[9] = dose: 200.0 mg/kg/injection, schedule: Q01DX001 (ip), vehicle: carboxymethylcellulose (CMC)
[10] = dose: 400.0 mg/kg/injection, schedule: Q01DX001 (ip), vehicle: carboxymethylcellulose (CMC)
[11] = dose: 100.0 mg/kg/injection, schedule: Q01DX001 (ip), vehicle: saline with Tween-80
[12] = dose: 100.0 mg/kg/injection, schedule: Q01DX009 (ip), vehicle: saline with Tween-80
[13] = dose: 100.0 mg/kg/injection, schedule: Q04DX002 (ip), vehicle: saline with Tween-80
[14] = dose: 100.0 mg/kg/injection, schedule: Q04DX003 (ip), vehicle: saline with Tween-80
[15] = dose: 200.0 mg/kg/injection, schedule: Q01DX001 (ip), vehicle: saline with Tween-80
[16] = dose: 200.0 mg/kg/injection, schedule: Q01DX009 (ip), vehicle: saline with Tween-80
[17] = dose: 200.0 mg/kg/injection, schedule: Q04DX002 (ip), vehicle: saline with Tween-80
[18] = dose: 200.0 mg/kg/injection, schedule: Q04DX003 (ip), vehicle: saline with Tween-80
[19] = dose: 400.0 mg/kg/injection, schedule: Q01DX001 (ip), vehicle: saline with Tween-80
[20] = dose: 400.0 mg/kg/injection, schedule: Q01DX009 (ip), vehicle: saline with Tween-80
[21] = dose: 400.0 mg/kg/injection, schedule: Q04DX002 (ip), vehicle: saline with Tween-80
[22] = dose: 400.0 mg/kg/injection, schedule: Q04DX003 (ip), vehicle: saline with Tween-80
[23] = dose: 100.0 mg/kg/injection, schedule: Q01DX001 (ip), vehicle: other
[24] = dose: 200.0 mg/kg/injection, schedule: Q01DX001 (ip), vehicle: other

Measured: T/C

c1ccc(OP(Oc2ccccc2)c2ccccc2)cc1
inactive: [1] 108 % of control | [2] 105 % of control | dose: 200.0 mg/kg/injection, schedule: Q01DX009 (ip), vehicle: saline 115 % of control | [3] 102 % of control | [4] 98 % of control

NC1=NC(c2ccccc2)N(c2ccccc2)C(N)=N1 (stereo not given)
inactive: dose: 50.0 mg/kg/injection, schedule: Q01DX001 (ip), vehicle: saline 99 % of control | dose: 100.0 mg/kg/injection, schedule: Q01DX001 (ip), vehicle: saline 104 % of control

O=C(NCCO)Nc1ccc(Cl)c(Cl)c1
inactive: [5] 100 % of control | [6] 103 % of control | [3] 101 % of control | [7] 101 % of control | [4] 87 % of control

Cn1ncc2c(=O)[nH]nnc21
inactive: [8] 98 % of control | [9] 89 % of control | [10] 104 % of control

Cc1cc2c(cc1C)C(=O)CCC2
inactive: [11] 97 % of control | [12] 109 % of control | [13] 88 % of control | [14] 97 % of control | [15] 97 % of control | [16] 109 % of control | [17] 90 % of control | [18] 98 % of control | [19] 91 % of control | [20] 115 % of control | [21] 90 % of control | [22] 95 % of control

O=Cc1cn(C2CC(O)C(CO)O2)c(=O)[nH]c1=O (stereo not given)
inactive: dose: 50.0 mg/kg/injection, schedule: Q01DX009 (ip), vehicle: Klucel (hydroxypropylcellulose) (HPC) 117 % of control | dose: 50.0 mg/kg/injection, schedule: Q04DX003 (ip), vehicle: saline with Tween-80 103 % of control | dose: 100.0 mg/kg/injection, schedule: Q01DX005 (ip), vehicle: saline 108 % of control | [14] 99 % of control | dose: 200.0 mg/kg/injection, schedule: Q01DX005 (ip), vehicle: saline 110 % of control | [18] 102 % of control | [7] 114 % of control | [22] 96 % of control

Cc1nc2ccccc2o1
inactive: dose: 100.0 mg/kg/injection, schedule: Q04DX002 (ip), vehicle: other 104 % of control | dose: 200.0 mg/kg/injection, schedule: Q04DX002 (ip), vehicle: other 96 % of control | dose: 400.0 mg/kg/injection, schedule: Q04DX002 (ip), vehicle: other 118 % of control

CCc1ccccc1NC(=O)NC(C)C
inactive: [5] 98 % of control | [2] 90 % of control | [6] 91 % of control | [3] 97 % of control | [7] 95 % of control | [4] 92 % of control

C/C=C/CCCCCCCC
inactive: [11] 93 % of control | [15] 95 % of control | [19] 96 % of control

O=S(=O)(c1ccccc1)C1CCCCC1Cl (stereo not given)
inactive: [8] 95 % of control | [9] 98 % of control | [10] 101 % of control

CC(C)C(CN)(CCN1CCCCC1)Cc1cccc2ccccc12 (stereo not given)
inactive: [14] 97 % of control

OC1(C#[C][Hg][C]#CC2(O)CCCCC2)CCCCC1
inactive: [2] 98 % of control | [3] 100 % of control

O=S(=O)(F)c1ccc(Cl)cc1CBr
inactive: [13] 107 % of control | [17] 101 % of control | [21] 92 % of control

CC(=O)Nc1cc(NC(C)=O)cc(N(CCO)CCO)c1
inactive: dose: 25.0 mg/kg/injection, schedule: Q01DX009 (ip), vehicle: water 97 % of control | dose: 50.0 mg/kg/injection, schedule: Q01DX009 (ip), vehicle: water 100 % of control | dose: 100.0 mg/kg/injection, schedule: Q01DX009 (ip), vehicle: water 106 % of control | dose: 400.0 mg/kg/injection, schedule: Q01DX009 (ip), vehicle: water 106 % of control

COCc1c(C)[nH]c2ccc(N(C)C)cc2c1=O
inactive: [12] 97 % of control | [16] 103 % of control | [20] 105 % of control

CC(C)CC1NC(=O)C(NC(=O)c2ncccc2O)C(C)OC(=O)C(c2ccccc2)N(C)C(=O)C(C)NC(=O)C(C(C)C(C)C)N(C)C(=O)CN(C)C(=O)C2CC(O)CN2C1=O (stereo not given) ({Picolinoyl(3-OH)}-TL[Hyp][Sar][X3]A[NMePhg]; ester 1-C; configuration not given here)
inactive: dose: 5.3 mg/kg/injection, schedule: Q01DX Z (ip), vehicle: saline 100 % of control | dose: 8.0 mg/kg/injection, schedule: Q01DX Z (ip), vehicle: saline 100 % of control | dose: 12.0 mg/kg/injection, schedule: Q01DX Z (ip), vehicle: saline 103 % of control | dose: 18.0 mg/kg/injection, schedule: Q01DX Z (ip), vehicle: saline 103 % of control and 109 % of control | dose: 36.0 mg/kg/injection, schedule: Q01DX Z (ip), vehicle: saline 97 % of control | dose: 72.0 mg/kg/injection, schedule: Q01DX Z (ip), vehicle: saline 103 % of control | dose: 144.0 mg/kg/injection, schedule: Q01DX Z (ip), vehicle: saline 106 % of control

COC(=O)C1CC(=O)C(C(=O)OC)CC1=O (stereo not given)
inactive: [5] 89 % of control | [6] 92 % of control | [7] 89 % of control

COc1ccc(COC(=O)Nc2ccc([N+](=O)[O-])cc2OC)cc1
inactive: [5] 90 % of control | [6] 91 % of control | [7] 106 % of control

Oc1ccc2ccccc2c1C(c1ccccc1)c1c(O)ccc2ccccc12
inactive: dose: 87.5 mg/kg/injection, schedule: Q04DX003 (ip), vehicle: carboxymethylcellulose (CMC) 106 % of control | dose: 175.0 mg/kg/injection, schedule: Q04DX003 (ip), vehicle: carboxymethylcellulose (CMC) 95 % of control | dose: 350.0 mg/kg/injection, schedule: Q04DX003 (ip), vehicle: carboxymethylcellulose (CMC) 111 % of control

CCOc1ccc(NC(C)=O)cc1Br
inactive: [23] 103 % of control | [24] 103 % of control | dose: 400.0 mg/kg/injection, schedule: Q01DX001 (ip), vehicle: other 111 % of control

CC(O)C(C)Cl (stereo not given)
inactive: dose: 50.0 mg/kg/injection, schedule: Q01DX009 (ip), vehicle: saline 100 % of control | [1] 103 % of control

N#CCCP(CCC#N)CCCCCP(CCC#N)CCC#N
inactive: [11] 100 % of control | [15] 92 % of control | [19] 86 % of control

Cc1ccccc1/C(=C/c1ccc([N+](=O)[O-])cc1)C(=O)O
inactive: [5] 95 % of control | [6] 108 % of control | [7] 104 % of control

O=C(Nc1ccc(CCO)cc1)c1ccc(F)cc1
inactive: [12] 102 % of control | [16] 93 % of control | [20] 93 % of control

Cc1ccc(C(=O)OCC(=O)c2ccc(-c3ccccc3)cc2)cc1
inactive: [23] 89 % of control | [24] 90 % of control

— PubChem BioAssay AID248 (DTP/NCI, 2004)
